Assays:
ANO1 [1] = target: T1, ANO1 (Homo sapiens, UniProt Q5XXA6, DEL476-501); experiment: Apical membrane current of ANO1 in FRT cells expressing human ANO1; assay type: cell-based
T1 construct: expressed in transfected cells; host or cells: Fisher rat thyroid (FRT) cells; The YFP assay uses FRT-ANO1-YFP cells, which also carry the halide sensor
T1 sequence (Q5XXA6 with tags, fused parts or gaps isoform Q5XXA6-5 DEL539-564): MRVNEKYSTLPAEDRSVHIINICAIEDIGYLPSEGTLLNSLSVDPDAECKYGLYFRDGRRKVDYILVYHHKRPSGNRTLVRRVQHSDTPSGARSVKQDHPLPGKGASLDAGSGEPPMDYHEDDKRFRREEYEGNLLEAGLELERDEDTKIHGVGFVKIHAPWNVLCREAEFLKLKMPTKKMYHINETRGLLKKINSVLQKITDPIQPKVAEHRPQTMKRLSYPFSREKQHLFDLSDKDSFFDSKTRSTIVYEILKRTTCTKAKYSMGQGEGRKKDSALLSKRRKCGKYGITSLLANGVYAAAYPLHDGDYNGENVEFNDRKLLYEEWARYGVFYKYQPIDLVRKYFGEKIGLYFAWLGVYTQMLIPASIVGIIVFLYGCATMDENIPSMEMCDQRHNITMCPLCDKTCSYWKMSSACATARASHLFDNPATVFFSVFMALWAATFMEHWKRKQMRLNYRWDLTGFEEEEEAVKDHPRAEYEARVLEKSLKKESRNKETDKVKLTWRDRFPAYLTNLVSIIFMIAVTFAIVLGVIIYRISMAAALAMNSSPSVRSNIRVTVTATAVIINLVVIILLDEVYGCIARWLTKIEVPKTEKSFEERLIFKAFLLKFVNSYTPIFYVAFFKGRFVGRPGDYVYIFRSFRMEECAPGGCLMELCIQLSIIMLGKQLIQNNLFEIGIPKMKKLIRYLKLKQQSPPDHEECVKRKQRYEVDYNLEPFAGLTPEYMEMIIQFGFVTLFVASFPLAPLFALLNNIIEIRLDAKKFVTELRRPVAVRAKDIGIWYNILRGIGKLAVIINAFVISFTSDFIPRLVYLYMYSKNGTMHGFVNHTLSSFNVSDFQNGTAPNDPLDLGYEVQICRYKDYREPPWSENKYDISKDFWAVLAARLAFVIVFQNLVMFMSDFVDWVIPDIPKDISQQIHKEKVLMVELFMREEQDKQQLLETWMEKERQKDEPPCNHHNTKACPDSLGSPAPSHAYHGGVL
Description: (A) Representative Fluo4 fluorescence traces from 3 independent experiments in FRT cells. […] (B,C) Representative apical membrane currents from 3–4 independent experiments in FRT cells expressing human ANO1. […] (D) Representative YFP fluorescence traces in FRT cells expressing human ANO2. […] (E) Representative Fluo4 fluorescence traces from 3 independent experiments in FRT cells. Cells were pretreated with DCPIB for 10 min followed by application of 100 μM ATP. (F) Representative apical membrane currents in FRT cells expressing human ANO1.
Snapwell inserts containing ANO1(abc) or CFTR-expressing FRT cells were mounted in Ussing chambers (Physiological Instruments, San Diego, CA). The basolateral hemichamber was filled with buffer solution (in mM): 120 NaCl, 5 KCl, 1 MgCl2, 1 CaCl2, 10 D-glucose, 2.5 HEPES, and 25 NaHCO3 (pH 7.4). The apical hemichamber was filled with buffer solution (in mM): 60 NaCl, 60 Na-gluconate, 5 KCl, 1 MgCl2, 1 CaCl2, 10 D-glucose, 2.5 HEPES, and 25 NaHCO3 (pH 7.4). FRT cells were bathed for a 10 min stabilization period and gassed with 5% CO2 and 95% O2 at 37 °C. The apical membrane current was recorded with an EVC4000 Multi-Channel V/I Clamp (World Precision Instruments, Sarasota, FL, USA) and a PowerLab 4/35 (AD Instruments, Castle Hill, Australia).

ANO1 [2] = target: T1, ANO1; experiment: YFP fluorescence quenching assay for ANO1 activity in FRT-ANO1 cells; assay type: cell-based; conditions: ATP 100 μM, n = 4
Description: Figure 2 Inhibitory effects of VI-101, VI-201 and VI-301 on VRAC and ANO1. (A–C) Representative YFP fluorescence traces for VRAC activity. LN215 cells were treated with the indicated concentrations of VI-101, VI-201 and VI-301 with hypotonic solution for 5 min. (D) Dose-response curve of VRAC inhibition (mean ± S.E., n = 4). (E–G) Representative YFP fluorescence traces for ANO1 activity. […]. (H) Dose-response curve of ANO1 inhibition (mean ± S.E., n = 4).
Human ANO1(abc) expressing Fisher rat thyroid (FRT) cells, ANO2 expressing FRT cells, and human CFTR expressing FRT cells were cultured as described in a previous study. LN215 cells were stably transfected with the halide sensor YFP-F46L/H148Q/I152 and NIH-3T3 cells cultured in DMEM were supplemented with 10% FBS, 2 mM L-glutamine, 100 units/mL penicillin, and 100 μg/mL streptomycin. HEK293T cells were stably transfected with the human Kv11.1 (hERG) and cultured in DMEM supplemented with 10% FBS, 2 mM L-glutamine, 100 units/mL penicillin, and 100 μg/mL streptomycin. PC3, HT29, and HeLa cells were stably transfected with the halide sensor YFP-F46L/H148Q/I152 and cultured in RPMI 1640 supplemented with 10% FBS, 2 mM L-glutamine, 100 units/mL penicillin, and 100 μg/mL streptomycin. […]

How did the “effect on ANO1 channel activity” value (ANO1 [1]; 10 μM) turn out when `COc1cccc(C(c2c(O)c3ccccc3oc2=O)c2c(O)c3ccccc3oc2=O)c1O` [VI-116, 3,3′-((2-hydroxy-3-methoxyphenyl)methylene)bis(4-hydroxy-2H-chromen-2-one)] was run?
Its value is “minimal effect”.

What about the “effect on ANO1 activation by Eact (apical membrane current)” value (ANO1 [1]; FRT cells expressing human ANO1, 3 μM Eact) of the same compound?
The value was “did not alter”.

And the “effect on ANO1 activation by ATP (apical membrane current)” value (ANO1 [1]; FRT cells expressing human ANO1, 100 μM ATP)?
The value was “did not alter”.

What about the IC50 (ANO1 [2]) of the same compound?
The IC50 was 39.1 µM.

— paper PMC9103758 (International Journal of Molecular Sciences, 2022)
